The source of these data is patent publication US20080161422A1, “Methods and Compositions for the Treatment of Lipid-Associated Disorders” (priority 2005, published 2008).

“Also recorded” adds a separate entry of the source.

For one assay, the target named is T1, mouse niacin receptor (Mus musculus, UniProt Q9EP66).
T1 construct: expressed in transfected cells; host or cells: CHO cells
Put plainly: MAP kinase ELISA (phosphoERK1/2) in CHO cells expressing the mouse niacin receptor. To be noted: compared to niacin. It counts as cell-based. On the procedure: A kit from Biosource (phosphoERK1/2 pT185pY187 ELISA, Catalog #KHO-0091) was used according to the following protocol.
The cells were serum-starved overnight prior to stimulating the cells with compound.
A. Compounds were dissolved in DMSO. […] PMA (100 ng/ml) was used as a positive control. B. Cell dishes were taken out of the incubator and placed on a rocker set to gentle rocking (set speed at 4). Compound was carefully added and cells were returned to the incubator to incubate for 5 min. At 4.5 min, the medium was aspirated from dishes in the order that the compound was added. Then 2 ml cold PBS was added and excess medium was removed by gentle swirling. The PBS was aspirated and 1 ml of PBS was added (1 ml for confluent 6 cm dish).
A. Cells were scraped from dish with a rubber policeman and transferred to a microfuge tube, then centrifuged at 3000 rpm at 4° C. for 5 minutes. B. The PBS was aspirated and cell pellet lysed in Cell Extraction Buffer (0.1% SDS) (250-300 μl for confluent 6 cm dish) for 30 min. on ice with vortexing at 10 min intervals. C. The mixture was then centrifuged at max speed (16,000×G) for 15 min. at 4° C. D. Clarified lysates were transferred to new microfuge tubes and protein concentration measure. […]
A. All reagents were at room temperature and mixed before use. […] The number of 8 well strips needed for assay was determined and bag was sealed and returned to 4° C. […]
(An ELISA detects its analyte on a solid surface through an enzyme-linked reagent.)

Assay [1] has as its target T2, niacin receptor (Homo sapiens, UniProt Q8TDS4). The assay is described as follows: MAP kinase ELISA (phosphoERK1/2) in CHO cells expressing the human niacin receptor. The following applies: compared to niacin.
For assay [2], the target named is T2, niacin receptor. The assay is described as follows: Binding to the niacin receptor.
Assay [3] relates to women suffering from painful menstrual cramps. To be noted: 80 women; 100 mg niacin twice daily, then every 2 to 3 hours during heavy cramps; cited from earlier work.

T2 sequence (Q8TDS4 whole entry): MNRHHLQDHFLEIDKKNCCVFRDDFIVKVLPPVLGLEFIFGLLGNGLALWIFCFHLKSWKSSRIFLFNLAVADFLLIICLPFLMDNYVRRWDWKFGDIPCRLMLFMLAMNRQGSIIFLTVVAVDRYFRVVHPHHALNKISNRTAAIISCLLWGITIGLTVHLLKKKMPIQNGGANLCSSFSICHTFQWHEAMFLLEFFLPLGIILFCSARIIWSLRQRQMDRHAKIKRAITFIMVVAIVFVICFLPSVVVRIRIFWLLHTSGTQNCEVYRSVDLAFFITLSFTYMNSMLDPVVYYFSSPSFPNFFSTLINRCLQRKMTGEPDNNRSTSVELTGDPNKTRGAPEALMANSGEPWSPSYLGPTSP
T1 sequence (Q9EP66 whole entry): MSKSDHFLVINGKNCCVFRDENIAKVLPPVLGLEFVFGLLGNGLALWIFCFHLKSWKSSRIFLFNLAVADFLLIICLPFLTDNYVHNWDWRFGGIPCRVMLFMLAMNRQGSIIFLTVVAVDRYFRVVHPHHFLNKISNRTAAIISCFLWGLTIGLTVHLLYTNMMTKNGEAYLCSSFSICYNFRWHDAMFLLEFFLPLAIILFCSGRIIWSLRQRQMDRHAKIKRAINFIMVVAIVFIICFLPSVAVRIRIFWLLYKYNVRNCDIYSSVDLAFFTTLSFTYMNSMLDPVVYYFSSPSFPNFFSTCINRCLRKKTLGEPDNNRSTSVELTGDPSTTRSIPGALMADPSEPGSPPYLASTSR

As to `c1cncc(-c2nn[nH]n2)c1` [Compound 12], the MAP kinase activation entry at mouse niacin receptor and at niacin receptor [1] was “closely matches the profile of niacin; also recorded: behaves like niacin in a MAP kinase assay” each time. Besides, the “binding to the niacin receptor” value on niacin receptor [2] is recorded as “binds to the niacin receptor”.

As for `O=C(O)c1cccnc1` [niacin, nicotinic acid], the “subjects experiencing significant relief” value in assay [3] was “About 90%”.
